Patent US7205403B2, “8-Heteroaryl xanthine adenosine A2B receptor antagonists” (King Pharmaceuticals Research and Development, Inc., priority 2002, dated 2007)
“Also recorded” adds a separate entry of the source. Read-outs that look alike come from different tables or passages of the source.

Assays:
[1] = molecular target: T1, human A1 adenosine receptor (Homo sapiens, UniProt P30542); experiment: [3H]DPCPX binding to human A1 receptors expressed in CHO cells
T1 construct: expressed in transfected cells; host or cells: CHO cells (membranes)
T1 sequence (P30542 1-326): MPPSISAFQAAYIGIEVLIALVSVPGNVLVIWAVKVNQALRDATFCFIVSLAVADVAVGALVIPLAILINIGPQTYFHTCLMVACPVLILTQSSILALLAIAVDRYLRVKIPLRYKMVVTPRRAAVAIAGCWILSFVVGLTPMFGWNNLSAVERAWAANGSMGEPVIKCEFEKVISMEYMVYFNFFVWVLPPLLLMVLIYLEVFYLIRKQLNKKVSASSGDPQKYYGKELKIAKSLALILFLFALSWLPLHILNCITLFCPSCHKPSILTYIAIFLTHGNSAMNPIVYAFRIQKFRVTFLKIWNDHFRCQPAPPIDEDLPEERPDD
Protocol: (§1) The cells were grown adherently and maintained in Dulbecco's modified Eagle's medium with nutrient mixture F12 without nucleosides at 37° C. in 5% CO2/95% air. The cells were washed with phosphate-buffered saline and scraped off flasks in ice cold hypotonic buffer ([…] Tris HCl, 2 mM EDTA, pH 7.4). The cell suspension was homogenized with a Polytron and the homogenate was centrifuged for 30 minutes at 48,000 g. The resultant membrane pellet was re-suspended in 50 mM Tris HCl buffer at pH 7.4 for A1 adenosine receptors; in 50 mM Tris HCl 10 mM MgCl, at pH 7.4 for A2A adenosine receptors; in 50 mM Tris HCl, 10 mM MgCl2, 1 mM EDTA, at pH 7.4 for A3 adenosine receptors and were utilized for binding assays.
Displacement experiments were performed for 120 minutes at 25° C. in 200 μl of buffer containing 1 nM ^3H]-DPCPX 20 μl of diluted membranes (50 μg of protein/assay) and at least 6 to 8 different concentrations of examined compounds.
(§2) The filter bound radioactivity was counted on Top Count (efficiency 57%) with Micro-Scint 20.
(§3) The filter bound radioactivity was counted on a Top Count brand Microplate Scintillation Counter (efficiency 57%) with Micro-Scint 20. […] Inhibitory binding constant. […] Results and Discussion

[2] = molecular target: T2, human A2A adenosine receptor (Homo sapiens, UniProt P29274); experiment: [3H]ZM241385 binding to human A2A receptors expressed in CHO cells; conditions: for Ki: read-out: Ki, [3H]ZM241385 binding to human A2A receptors expressed in CHO cells; for Ki, [3H]ZM241385 binding to human A2A receptors expressed in CHO cells: geometric mean (95% confidence interval), >1000 = no appreciable binding
T2 construct: expressed in transfected cells; host or cells: CHO cells (membranes)
Protocol: as §1, §2, §3

[3] = molecular target: T3, human A3 adenosine receptor (Homo sapiens, UniProt P0DMS8); experiment: [3H]MRE3008F20 binding to human A3 receptors expressed in CHO cells; conditions: for Ki, [3H]MRE3008F20 binding to human A3 receptors expressed in CHO cells: geometric mean (95% confidence interval), >1000 = no appreciable binding
T3 construct: expressed in transfected cells; host or cells: CHO cells (membranes)
T3 sequence (P0DMS8 1-318): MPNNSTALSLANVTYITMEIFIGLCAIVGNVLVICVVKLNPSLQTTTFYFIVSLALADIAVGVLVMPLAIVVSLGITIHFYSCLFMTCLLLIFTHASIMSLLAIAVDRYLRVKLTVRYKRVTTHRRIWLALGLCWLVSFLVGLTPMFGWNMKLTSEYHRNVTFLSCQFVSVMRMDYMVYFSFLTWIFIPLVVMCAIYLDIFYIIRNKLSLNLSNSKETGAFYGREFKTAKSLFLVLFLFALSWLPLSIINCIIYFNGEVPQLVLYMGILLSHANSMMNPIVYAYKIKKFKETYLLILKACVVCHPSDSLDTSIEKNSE
Protocol: as §1
Binding of [^3H]-MRE3008-F20 to CHO cells transfected with the human recombinant A3 adenosine receptors was performed according to Varani et al., 2000. Competition experiments were carried out in duplicate in a final volume of 250 μl in test tubes containing 1 nM [^3H]-MRE3008-F20, 50 mM Tris HCl buffer, […] MgCl2, pH 7.4 and 100 μl of diluted membranes (50 μg of protein/assay) and at least 6–8 different concentrations of examined ligands for 120 minutes at 4° C.
as §2, §3

[4] = molecular target: T4, human A2B adenosine receptor (Homo sapiens, UniProt P29275); experiment: [3H]DPCPX binding to human A2B receptors expressed in HEK293 cells; parameters: host or cells: HEK 293 cells (membranes); conditions: geometric mean (95% confidence interval); >1000 = no appreciable binding; read-out: Ki, [3H]DPCPX binding to human A2B receptors expressed in HEK293 cells
T4 sequence (P29275 1-332): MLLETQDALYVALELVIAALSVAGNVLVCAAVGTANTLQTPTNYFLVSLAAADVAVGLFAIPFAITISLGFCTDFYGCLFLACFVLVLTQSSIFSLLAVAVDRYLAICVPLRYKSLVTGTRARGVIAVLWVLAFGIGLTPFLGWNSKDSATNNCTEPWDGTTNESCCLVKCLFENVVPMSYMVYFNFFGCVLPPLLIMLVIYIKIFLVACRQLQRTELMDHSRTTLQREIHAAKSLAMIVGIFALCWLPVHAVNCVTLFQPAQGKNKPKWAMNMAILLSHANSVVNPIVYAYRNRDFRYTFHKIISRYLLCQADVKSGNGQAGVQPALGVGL
Protocol: HEK 293 cells transfected with the human recombinant A2B adenosine receptor were obtained from Receptor Biology, Inc. (Beltsville, Md. USA).
Binding of 1 [^3H]-DPCPX to HEK 293 cells transfected with the human recombinant A2B adenosine receptors was performed according to the method described by Varani et al., 2000. In particular, assays were carried out for 60 minutes at 25° C. in 100 μl of […] Tris HCl buffer, […] MgCl2, 1 mM EDTA, 0.1 mM benzamidine pH 7.4, 2 IU/ml adenosine deaminase containing 40 nM [^3H]-DPCPX, diluted membranes (20 μg of protein/assay) and at least 6–8 different concentration of tested compounds.
as §2, §3

[5] = geometric mean (95% confidence interval), >1000 = no appreciable binding

T2 sequence (P29274 whole entry): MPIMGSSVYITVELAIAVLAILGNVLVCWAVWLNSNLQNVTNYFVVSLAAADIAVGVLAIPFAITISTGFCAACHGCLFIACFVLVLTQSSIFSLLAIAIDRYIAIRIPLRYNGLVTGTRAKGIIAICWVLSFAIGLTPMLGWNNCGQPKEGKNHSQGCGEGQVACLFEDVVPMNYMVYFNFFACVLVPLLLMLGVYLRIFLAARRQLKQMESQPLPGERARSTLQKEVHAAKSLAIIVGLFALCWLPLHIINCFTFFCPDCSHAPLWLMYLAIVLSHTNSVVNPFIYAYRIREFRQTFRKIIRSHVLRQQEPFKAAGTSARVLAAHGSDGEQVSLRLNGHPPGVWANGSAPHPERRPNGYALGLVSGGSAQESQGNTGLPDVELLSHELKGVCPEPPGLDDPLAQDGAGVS

| Ki [1, 5] [nM] | Ki [2] [nM] | Ki [3] [nM] | Ki [4] [nM] | Ki [1] [nM] | Structure (SMILES) | Ki, [3H]DPCPX binding to human A1 receptors expressed in CHO cells [1, 5] | Ki, [3H]ZM241385 binding to human A2A receptors expressed in CHO cells [2] | Ki, [3H]MRE3008F20 binding to human A3 receptors expressed in CHO cells [3] |
| --- | --- | --- | --- | --- | --- | --- | --- | --- |
| 201 | > 1000 | > 1000 | 235 |  | CCCn1c(=O)c2[nH]c(-c3cc(N)nn3C)nc2n(CCC)c1=O [AS3, 8-(3-amino-1-methyl-1H-pyrazol-5-yl)-1,3-dipropyl-3,7-dihydro-1H-purine-2,6-dione] |  |  |  |
|  | > 1000 | > 1000 | 342 | 122 | CCCn1c(=O)c2[nH]c(-c3cc([N+](=O)[O-])cn3C)nc2n(CCC)c1=O [AS7, 8-(1-methyl-4-nitro-1H-pyrrol-2-yl)-1,3-dipropyl-3,7-dihydro-1H-purine-2,6-dione] |  |  |  |
|  | > 1000 | > 1000 | > 1000 | > 1000 | CCCn1c(=O)c2[nH]c(-c3cc(NC(=O)CCCNC(=O)OC(C)(C)C)nn3C)nc2n(CCC)c1=O [AS9, tert-butyl 4-{[5-(2,6-dioxo-1,3-dipropyl-2,3,6,7-tetrahydro-1H-purin-8-yl)-1-methyl-1H-pyrazol-3-yl]amino}-4-oxobutylcarbamate] |  |  |  |
| 548 | > 1000 | > 1000 | 2060 |  | CCCn1c(=O)c2[nH]c(-c3cc(NC(=O)CCCN)nn3C)nc2n(CCC)c1=O [AS10, 4-{[5-(2,6-dioxo-1,3-dipropyl-2,3,6,7-tetrahydro-1H-purin-8-yl)-1-methyl-1H-pyrazol-3-yl]amino}-4-oxobutan-1-aminium chloride] |  |  |  |
|  | > 1000 | > 1000 | > 1000 | > 1000 | CCCn1c(=O)c2[nH]c(-c3cc(NC(=O)COc4ccc(Cl)cc4Cl)nn3C)nc2n(CCC)c1=O [AS12, 2-(2,4-dichlorophenoxy)-N-[5-(2,6-dioxo-1,3-dipropyl-2,3,6,7-tetrahydro-1H-purin-8-yl)-1-methyl-1H-pyrazol-3-yl]acetamide] |  |  |  |
|  | > 1000 | > 1000 | 96 |  | CCCn1c(=O)c2[nH]c(-c3cc(NC(=O)Cc4cccc(OC)c4)nn3C)nc2n(CCC)c1=O [AS13, 2-(3-methoxyphenyl)-N-[5-(2,6-dioxo-1,3-dipropyl-2,3,6,9-tetrahydro-1H-purin-8-yl)-1-methyl-1H-pyrazol-3-yl]acetamide] | no appreciable affinity; also recorded: without significant binding | no appreciable affinity; also recorded: without significant binding | no appreciable affinity; also recorded: without significant binding |
|  | > 1000 | > 1000 | 78 |  | CCCn1c(=O)c2[nH]c(-c3cc(NC(=O)Cc4ccc([N+](=O)[O-])cc4)nn3C)nc2n(CCC)c1=O [AS15, N-[5-(2,6-dioxo-1,3-dipropyl-2,3,6,9-tetrahydro-1H-purin-8-yl)-1-methyl-1H-pyrazol-3-yl]-2-(4-nitrophenyl)acetamide] | no appreciable affinity; also recorded: without significant binding | no appreciable affinity; also recorded: without significant binding | no appreciable affinity; also recorded: without significant binding |
|  | > 1000 | > 1000 | 56 |  | CCCn1c(=O)c2[nH]c(-c3cc(NC(=O)Cc4ccc(OCc5ccccc5)cc4)nn3C)nc2n(CCC)c1=O [AS16, 2-[4-benzyloxyphenyl]-N-[5-(2,6-dioxo-1,3-dipropyl-2,3,6,9-tetrahydro-1H-purin-8-yl)-1-methyl-1H-pyrazol-3-yl]acetamide] | no appreciable affinity; also recorded: without significant binding | no appreciable affinity; also recorded: without significant binding | no appreciable affinity; also recorded: without significant binding |
|  | > 1000 | > 1000 | 103 |  | CCCn1c(=O)c2[nH]c(-c3cc(NC(=O)Cc4ccc(O)cc4)nn3C)nc2n(CCC)c1=O [AS17, 2-[4-hydroxyphenyl]-N-[5-(2,6-dioxo-1,3-dipropyl-2,3,6,9-tetrahydro-1H-purin-8-yl)-1-methyl-1H-pyrazol-3-yl]acetamide] | no appreciable affinity; also recorded: without significant binding | no appreciable affinity; also recorded: without significant binding | no appreciable affinity; also recorded: without significant binding |
|  | > 1000 | > 1000 | > 1000 | > 1000 | CCCn1c(=O)c2c(nc(/C=C/c3cc(COC(=O)c4ccccc4)on3)n2C)n(CCC)c1=O [AS20, {3-[(E)-2-(1,3-dipropyl-7-methyl-2,6-dioxo-2,3,6,7-tetrahydro-1H-purin-8-yl)vinyl]isoxazol-5-yl}methyl benzoate] |  |  |  |
|  | > 1000 | > 1000 | > 1000 | > 1000 | CCCn1c(=O)c2[nH]c(-c3cc(NC(=O)COc4ccc(Cl)cc4)nn3C)nc2n(CCC)c1=O [AS21, 2-(4-chlorophenoxy)-N-[5-(1,3-dipropyl-2,6-dioxo-2,3,6,7-tetrahydro-1H-purin-8-yl)-1-methyl-1H-pyrazol-3-yl]acetamide] |  |  |  |
| 140 |  |  | 58 |  | CCCn1c(=O)c2[nH]c(-c3cc(N)n(C)n3)nc2n(CCC)c1=O [AS37, 8-(5-amino-1-methyl-1H-pyrazol-3-yl)-1,3-dipropyl-3,7-dihydro-1H-purine-2,6-dione] |  |  |  |
| 467 |  |  | 303 |  | CC(C)Cn1c(=O)c2nc(-c3cc(OCC(=O)Nc4ccc(F)cc4)nn3C)[nH]c2n(CC(C)C)c1=O [AS66, 2-{[5-(1,3-diisobutyl-2,6-dioxo-2,3,6,9-tetrahydro-1H-purin-8-yl)-1-methyl-1H-pyrazol-3-yl]oxy}-N-(4-fluorophenyl)acetamide] |  |  |  |
| 955 |  |  | 41 |  | CCCn1c(=O)c2[nH]c(-c3cc(OCC(=O)Nc4ccncc4)nn3C)nc2n(CCC)c1=O [AS89] |  |  |  |
| 1000 |  |  | 74 |  | CCCn1c(=O)c2[nH]c(-c3cc(OCC(=O)Nc4ccc(C(C)CC)cc4)nn3C)nc2n(CCC)c1=O (centres unmarked) [AS91, 1,3-di-n-propyl-8-{5-[(4-sec-butyl-phenylcarbamoyl)-methoxy]-2-methyl-2H-pyrazole-3-yl}-xanthine] |  |  |  |

| Structure (SMILES) | Ki [1, 5] [nM] | Ki [2] [nM] | Ki [3] [nM] | Ki [4] [nM] | Ki [1] [nM] | Ki, [3H]DPCPX binding to human A1 receptors expressed in CHO cells [1, 5] | Ki, [3H]ZM241385 binding to human A2A receptors expressed in CHO cells [2] | Ki, [3H]MRE3008F20 binding to human A3 receptors expressed in CHO cells [3] |
| --- | --- | --- | --- | --- | --- | --- | --- | --- |
| CCCn1c(=O)c2[nH]c(-c3cc(OCC(=O)N4CCN(Cc5ccccc5)CC4)nn3C)nc2n(CCC)c1=O [AS90] | 810 |  |  | 85 |  |  |  |  |
